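Interpolation was linear, between the two tested concentrations surrounding the appropriate level; five concentrations were tested over 48 hours in 96-well plates. GI50: concentration for 50% inhibition of growth.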 Active and inactive are the calls of the source. Rule as the data show it: active = GI50 up to about 1.1 µM and inactive = higher.
Tests used:
Test in all cases: NCI-60 cell line screen, 48 h
[1] = tested on: SF-268
[2] = tested on: CAKI-1
[3] = tested on: SN12C
[4] = tested on: NCI-H226
[5] = tested on: SK-OV-3
[6] = tested on: RXF 631
[7] = tested on: IGROV-1
[8] = tested on: 786-0
[9] = tested on: HOP-18
[10] = tested on: OVCAR-3
[11] = tested on: XF498
[12] = tested on: UO-31
[13] = tested on: OVCAR-5
[14] = tested on: EKVX
[15] = tested on: DLD-1
[16] = tested on: TK-10
[17] = tested on: NCI-H460
[18] = tested on: RPMI-8226
[19] = tested on: HT-29
[20] = tested on: NCI-H23
[21] = tested on: COLO 205
[22] = tested on: SF-539
[23] = tested on: DMS-114
[24] = tested on: HCT-116
[25] = tested on: A549
[26] = tested on: KM12
[27] = tested on: M19-MEL
[28] = tested on: SNB-19
[29] = tested on: LOX IMVI
[30] = tested on: SNB-78
[31] = tested on: SK-MEL-28
[32] = tested on: OVCAR-4
[33] = tested on: CCRF-CEM
[34] = tested on: HOP-92
[35] = tested on: K562
[36] = tested on: OVCAR-8
[37] = tested on: DMS-273
[38] = tested on: A498
[39] = tested on: SK-MEL-2
[40] = tested on: UACC-257
[41] = tested on: SF-295
[42] = tested on: HCT-15
[43] = tested on: MOLT-4
[44] = tested on: HOP-62
[45] = tested on: UACC-62
[46] = tested on: ACHN
[47] = tested on: KM-20L2
[48] = tested on: SW-620
[49] = tested on: M14
[50] = tested on: SK-MEL-5
[51] = tested on: Malme-3M
[52] = tested on: SNB-75
[53] = tested on: HCC 2998
[54] = tested on: RXF 393
[55] = tested on: HL-60
[56] = tested on: NCI-H522
[57] = tested on: LXFL 529
[58] = tested on: SR

`Cc1ccc(Cc2c(=O)[nH]nc3ccccc23)cc1` was tested, and the GI50 [1] was > 100 µM (inactive), the GI50 [2] was > 100 µM (inactive) and the GI50 [3] was > 100 µM (inactive). The GI50 [4] was > 100 µM (inactive), the GI50 [5] was > 100 µM (inactive) and the GI50 [6] was > 100 µM (inactive). The GI50 [7] was > 100 µM (inactive), the GI50 [8] was > 100 µM (inactive) and the GI50 [9] was > 100 µM (inactive). For the same compound, the GI50 [10] was > 100 µM (inactive), the GI50 [11] was 30.2 µM (inactive) and the GI50 [12] was 58.3 µM (inactive). For the same compound, the GI50 [13] was > 100 µM (inactive), the GI50 [14] was > 100 µM (inactive) and the GI50 [15] was > 100 µM (inactive). The GI50 [16] was > 100 µM (inactive), the GI50 [17] was > 100 µM (inactive) and the GI50 [18] was > 100 µM (inactive). For the same compound, the GI50 [19] was > 100 µM (inactive), the GI50 [20] was > 100 µM (inactive) and the GI50 [21] was > 100 µM (inactive). For the same compound, the GI50 [22] was > 100 µM (inactive), the GI50 [23] was > 100 µM (inactive) and the GI50 [24] was > 100 µM (inactive). The GI50 [25] was > 100 µM (inactive), the GI50 [26] was > 100 µM (inactive) and the GI50 [27] was > 100 µM (inactive). The GI50 [28] was > 100 µM (inactive), the GI50 [29] was > 100 µM (inactive) and the GI50 [30] was > 100 µM (inactive). For the same compound, the GI50 [31] was > 100 µM (inactive), the GI50 [32] was > 100 µM (inactive) and the GI50 [33] was > 100 µM (inactive). For the same compound, the GI50 [34] was 89.7 µM (inactive), the GI50 [35] was > 100 µM (inactive) and the GI50 [36] was > 100 µM (inactive). The GI50 [37] was > 100 µM (inactive), the GI50 [38] was > 100 µM (inactive) and the GI50 [39] was > 100 µM (inactive). For the same compound, the GI50 [40] was > 100 µM (inactive), the GI50 [41] was 89.5 µM (inactive) and the GI50 [42] was over 100 µM. The GI50 [43] was > 100 µM (inactive), the GI50 [44] was > 100 µM (inactive) and the GI50 [45] was > 100 µM (inactive). For the same compound, the GI50 [46] was > 100 µM (inactive), the GI50 [47] was > 100 µM (inactive) and the GI50 [48] was > 100 µM (inactive). For the same compound, the GI50 [49] was > 100 µM (inactive), the GI50 [50] was > 100 µM (inactive) and the GI50 [51] was > 100 µM (inactive). The GI50 [52] was 79.8 µM (inactive) and the GI50 [53] was > 100 µM (inactive).
For `CC(C)(C)OC(=O)N[C@H]1CC(O)c2ccccc2N(CC(=O)O)C1=O` (stereo partly specified), the GI50 [1] was > 100 µM (inactive), the GI50 [2] was > 100 µM (inactive) and the GI50 [3] was > 100 µM (inactive). The GI50 [4] was > 100 µM (inactive), the GI50 [5] was > 100 µM (inactive) and the GI50 [6] was > 100 µM (inactive). For the same compound, the GI50 [7] was > 100 µM (inactive), the GI50 [8] was > 100 µM (inactive) and the GI50 [9] was > 100 µM (inactive). The GI50 [10] was > 100 µM (inactive), the GI50 [11] was > 100 µM (inactive) and the GI50 [12] was > 100 µM (inactive). The GI50 [14] was > 100 µM (inactive), the GI50 [15] was > 100 µM (inactive) and the GI50 [16] was > 100 µM (inactive). The GI50 [17] was > 100 µM (inactive), the GI50 [19] was > 100 µM (inactive) and the GI50 [20] was > 100 µM (inactive). For the same compound, the GI50 [21] was > 100 µM (inactive), the GI50 [22] was > 100 µM (inactive) and the GI50 [23] was > 100 µM (inactive). The GI50 [24] was > 100 µM (inactive), the GI50 [54] was > 100 µM (inactive) and the GI50 [55] was > 100 µM (inactive). The GI50 [25] was > 100 µM (inactive), the GI50 [26] was > 100 µM (inactive) and the GI50 [27] was > 100 µM (inactive). The GI50 [56] was > 100 µM (inactive), the GI50 [28] was > 100 µM (inactive) and the GI50 [57] was > 100 µM (inactive). For the same compound, the GI50 [58] was > 100 µM (inactive), the GI50 [29] was > 100 µM (inactive) and the GI50 [31] was > 100 µM (inactive). The GI50 [32] was > 100 µM (inactive), the GI50 [33] was > 100 µM (inactive) and the GI50 [34] was > 100 µM (inactive). For the same compound, the GI50 [36] was > 100 µM (inactive), the GI50 [37] was > 100 µM (inactive) and the GI50 [39] was > 100 µM (inactive). For the same compound, the GI50 [40] was > 100 µM (inactive), the GI50 [41] was > 100 µM (inactive) and the GI50 [42] was over 100 µM. For the same compound, the GI50 [43] was > 100 µM (inactive), the GI50 [44] was > 100 µM (inactive) and the GI50 [45] was > 100 µM (inactive). For the same compound, the GI50 [46] was > 100 µM (inactive), the GI50 [47] was > 100 µM (inactive) and the GI50 [48] was > 100 µM (inactive). For the same compound, the GI50 [49] was > 100 µM (inactive), the GI50 [50] was > 100 µM (inactive) and the GI50 [51] was > 100 µM (inactive). For the same compound, the GI50 [52] was > 100 µM (inactive) and the GI50 [53] was > 100 µM (inactive).
